Holding throughout (type): in vivo
For test [1], the system named is Abutilon theophrasti. The experiment in a line: greenhouse test, post-emergence treatment, ABUTH. To be noted: 2000 g/ha. A digest of the protocol: (§1)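 Seeds were sown per species in loamy sand with about 3.0% humus, grown (or transplanted as seedlings) to 3–15 cm, and treated with water-suspended or emulsified compound. Response was assessed over 2–4 weeks at species-dependent 10–25 °C or 20–35 °C, scored 0 (normal growth) to 100 (complete kill).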

Another test has as its system Setaria viridis. As to the kind of experiment: greenhouse test, pre-emergence treatment, SETVI. To be noted: 2000 g/ha. The text has this: (§2) The culture containers used were plastic flowerpots containing loamy sand with approximately 3.0% of humus as the substrate. The seeds of the test plants were sown separately for each species.
(§3) For the pre-emergence treatment, the active ingredients, which had been suspended or emulsified in water, were applied directly after sowing by means of finely distributing nozzles. The containers were irrigated gently to promote germination and growth and subsequently covered with transparent plastic hoods until the plants had rooted. This cover caused uniform germination of the test plants, unless this had been impaired by the active ingredients.
(§4) Depending on the species, the plants were kept at 10-25° C. or 20-35° C., respectively.
(§5) The test period extended over 2 to 4 weeks. During this time, the plants were tended, and their response to the individual treatments was evaluated.
(§6) Evaluation was carried out using a scale from 0 to 100. 100 means no emergence of the plants, or complete destruction of at least the aerial moieties, and 0 means no damage, or normal course of growth. A good herbicidal activity is given at values of at least 70 and a very good herbicidal activity is given at values of at least 85.
(§7) The plants used in the greenhouse experiments were of the following species: […]

In a further test the test system is Amaranthus retroflexus. The experiment in a line: greenhouse test, post-emergence treatment, AMARE. The method in brief:
as §1

Test [2] relates to Poa annua. The experiment in a line: greenhouse test, pre-emergence treatment, POAAN.
Source text: as §2, §3, §4, §5, §6, §7

The test system of test [3] is Apera spica-venti. As to the kind of experiment: greenhouse test, pre-emergence treatment, APESV. A digest of the protocol:
(§8)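 Scores run from 0, normal growth, to 100, no emergence or aerial parts destroyed, assessed after 2 to 4 weeks at 10-25 °C or 20-35 °C depending on species. Actives in water were spray-applied immediately post-sowing onto loamy sand with approximately 3.0% humus; hoods kept on until rooting.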

In test [4] the test system is Alopecurus myosuroides. The experiment in a line: greenhouse test, post-emergence treatment, ALOMY. To be noted: post-emergence. A digest of the protocol:
as §1

Test [5] relates to Echinocloa crus-galli. The experiment in a line: greenhouse test, pre-emergence treatment, ECHCG. The method in brief:
as §8

The subject of the next test is Agrostis stolonifera. As to the kind of experiment: greenhouse test, post-emergence treatment, AGSST.
Source text: as §2
(§9) For the post-emergence treatment, the test plants were first grown to a height of 3 to 15 cm, depending on the plant habit, and only then treated with the active ingredients which had been suspended or emulsified in water. For this purpose, the test plants were either sown directly and grown in the same containers, or they were first grown separately as seedlings and transplanted into the test containers a few days prior to treatment.
as §4, §5, §6, §7

The test system of the next test is Lolium multiflorum. As to the kind of experiment: greenhouse test, post-emergence treatment, LOLMU.
Source text: as §2, §9, §4, §5, §6, §7

The test system of another test is Chenopodium album. As to the kind of experiment: greenhouse test, post-emergence treatment, CHEAL. Conditions: 250 g/ha.
Source text: as §2, §9, §4, §5, §6, §7

The subject of test [6] is Echinocloa crus-galli. The experiment in a line: greenhouse test, post-emergence treatment, ECHCG. To be noted: post-emergence. A digest of the protocol:
as §1

Another test deals with Avena fatua. As to the kind of experiment: greenhouse test, post-emergence treatment, AVEFA. The method in brief:
as §1

The subject of test [7] is Abutilon theophrasti. As to the kind of experiment: greenhouse test, pre-emergence treatment, ABUTH. To be noted: 2000 g/ha.
Source text: as §2, §3, §4, §5, §6, §7

The next test relates to Polygonum convolvulus. The experiment in a line: greenhouse test, post-emergence treatment, POLCO. To be noted: 500 g/ha.
Source text: as §2, §9, §4, §5, §6, §7

The test system of test [8] is Poa annua. As to the kind of experiment: greenhouse test, post-emergence treatment, POAAN. Conditions: 500 g/ha.
Source text: as §2, §9, §4, §5, §6, §7

Test [9] deals with Alopecurus myosuroides. The experiment in a line: greenhouse test, pre-emergence treatment, ALOMY. To be noted: 2000 g/ha.
Source text: as §2, §3, §4, §5, §6, §7

Test [10] relates to Apera spica-venti. As to the kind of experiment: greenhouse test, post-emergence treatment, APESV. Conditions: post-emergence, 2000 g/ha.
Source text: as §2, §9, §4, §5, §6, §7

The subject of the next test is Matricaria inodora. As to the kind of experiment: greenhouse test, pre-emergence treatment, MATIN. Conditions: 2000 g/ha.
Source text: as §2, §3, §4, §5, §6, §7

For `Brc1ccccc1-c1cnc(C2CC2)nc1C1CC1` [Ex. 39], the herbicidal activity result in the test with Abutilon theophrasti [1], with Setaria viridis and in the test on Amaranthus retroflexus (2000 g/ha) was “very good (a very good herbicidal activity is given at values of at least 85)” in each case.

`OC(c1cccs1)C(O)c1nc(C2CC2)ncc1-c1ccccc1Cl` (stereo not shown) [Ex. 247]: the herbicidal activity result in the test with Poa annua [2] (500 g/ha), with Apera spica-venti [3] (500 g/ha), with Alopecurus myosuroides [4] (500 g/ha), in the test on Echinocloa crus-galli [5] (500 g/ha), with Amaranthus retroflexus (500 g/ha) and in the test with Agrostis stolonifera (500 g/ha) was “very good (a very good herbicidal activity is given at values of at least 85)” throughout.

For the compound `OCc1nc(C2CC2)ncc1-c1cc(F)ccc1Cl` [Ex. 14], the herbicidal activity result with Apera spica-venti [3] (250 g/ha) is given as “very good (a very good herbicidal activity is given at values of at least 85)”; in the test on Lolium multiflorum (250 g/ha) it was “good (A good herbicidal activity is given at values of at least 70)”.

Turning to `Cc1nc(C)c(-c2nc(C3CC3)ncc2-c2ccccc2Br)o1` [Ex. 265], the herbicidal activity entry was “good (A good herbicidal activity is given at values of at least 70)” in the test with Chenopodium album, “good (A good herbicidal activity is given at values of at least 70)” in the test with Alopecurus myosuroides [4] (250 g/ha) and “very good (a very good herbicidal activity is given at values of at least 85)” in the test with Amaranthus retroflexus (250 g/ha).

Regarding `C=C(C(=O)OC)c1nc(C2CC2)ncc1-c1ccccc1Cl` [Ex. 221], the herbicidal activity result in the test on Poa annua [2] (2000 g/ha), with Apera spica-venti [3] (2000 g/ha), with Abutilon theophrasti [1], in the test on Echinocloa crus-galli [5] (2000 g/ha), in the test with Echinocloa crus-galli [6] (2000 g/ha) and in the test with Agrostis stolonifera (2000 g/ha) was “very good (a very good herbicidal activity is given at values of at least 85)” throughout.

`Cc1nc(C)c(-c2nc(C3CC3)ncc2-c2cc(C(F)F)ccc2Cl)o1` [Ex. 291]: the herbicidal activity entry with Poa annua [2] (500 g/ha) is “very good (a very good herbicidal activity is given at values of at least 85)”; in the test on Apera spica-venti [3] (500 g/ha) it was “very good (a very good herbicidal activity is given at values of at least 85)”; with Alopecurus myosuroides [4] (500 g/ha) it was “good (A good herbicidal activity is given at values of at least 70)”; in the test with Echinocloa crus-galli [5] (500 g/ha), “very good (a very good herbicidal activity is given at values of at least 85)”; in the test with Lolium multiflorum (500 g/ha), “good (A good herbicidal activity is given at values of at least 70)”; in the test on Avena fatua (500 g/ha) it was “good (A good herbicidal activity is given at values of at least 70)”.

On to `Clc1ccccc1-c1cnc(C2CC2)nc1-c1nc2ccccc2[nH]1` [Ex. 297], for which the herbicidal activity entry is reported as “very good (a very good herbicidal activity is given at values of at least 85)” in the test on Apera spica-venti [3] (2000 g/ha); “very good (a very good herbicidal activity is given at values of at least 85)” in the test with Alopecurus myosuroides [4] (2000 g/ha); “good (A good herbicidal activity is given at values of at least 70)” in the test on Echinocloa crus-galli [5] (2000 g/ha); “very good (a very good herbicidal activity is given at values of at least 85)” in the test on Echinocloa crus-galli [6] (2000 g/ha); “good (A good herbicidal activity is given at values of at least 70)” with Abutilon theophrasti [7]; “very good (a very good herbicidal activity is given at values of at least 85)” in the test on Avena fatua (2000 g/ha).

`Cc1ncc(-c2nc(C3CC3)ncc2-c2ccccc2Cl)o1` [Ex. 244]: the herbicidal activity result in the test on Poa annua [2] (500 g/ha) is listed as “very good (a very good herbicidal activity is given at values of at least 85)”; in the test on Apera spica-venti [3] (500 g/ha) it was “very good (a very good herbicidal activity is given at values of at least 85)”; in the test with Alopecurus myosuroides [4] (500 g/ha), “good (A good herbicidal activity is given at values of at least 70)”; with Polygonum convolvulus, “good (A good herbicidal activity is given at values of at least 70)”; with Echinocloa crus-galli [5] (500 g/ha) it was “very good (a very good herbicidal activity is given at values of at least 85)”; in the test on Poa annua [8], “good (A good herbicidal activity is given at values of at least 70)”.

`CC(O)Cc1nc(C2CC2)ncc1-c1ccccc1Cl` (stereo not shown) [Ex. 105]: the herbicidal activity result in the test with Alopecurus myosuroides [9], in the test with Echinocloa crus-galli [5] (2000 g/ha), in the test with Echinocloa crus-galli [6] (2000 g/ha) and with Apera spica-venti [10] was “very good (a very good herbicidal activity is given at values of at least 85)” throughout.

Turning to `Cc1ccc(-c2nc(C3CC3)ncc2-c2ccccc2Br)o1` [Ex. 121], the herbicidal activity entry in the test on Alopecurus myosuroides [4] (500 g/ha), with Polygonum convolvulus, in the test with Lolium multiflorum (500 g/ha) and in the test on Echinocloa crus-galli [6] (500 g/ha) was “very good (a very good herbicidal activity is given at values of at least 85)” each time.

With `Clc1ccccc1-c1cnc(C2CC2)nc1-c1cnco1` [Ex. 260], the herbicidal activity entry was “good (A good herbicidal activity is given at values of at least 70)” in the test with Apera spica-venti [3] (2000 g/ha); “very good (a very good herbicidal activity is given at values of at least 85)” in the test on Matricaria inodora; “very good (a very good herbicidal activity is given at values of at least 85)” with Alopecurus myosuroides [4] (2000 g/ha); “very good (a very good herbicidal activity is given at values of at least 85)” with Echinocloa crus-galli [5] (2000 g/ha); “good (A good herbicidal activity is given at values of at least 70)” in the test with Echinocloa crus-galli [6] (2000 g/ha); “good (A good herbicidal activity is given at values of at least 70)” with Avena fatua (2000 g/ha).

For the origin of these results see patent US11178871B2, “Herbicidal pyrimidine compounds” (BASF SE, priority 2016, dated 2021).
